Results from patent publication US7172749B2, “Radiolabeled irreversible inhibitors of epidermal growth factor receptor tyrosine kinase and their use in radioimaging and radiotherapy” (priority 2001, dated 2007).
Where two headings read alike, the source gives them in different places.

Legend:
[1] = target: EGFR-TK (Homo sapiens, UniProt P00533); experiment: biochemical; settings: 3 μM ATP
Experimental: All the following incubations were performed at room temperature and with constant shaking. […] The final volume for each well was 150 μl.
After removing the unbound m108, the plate was washed and PBS containing 5% milk (1% fat) was added for the blocking (25 minutes).
One aliquot of A431 cell lysate was thawed and added to the plate.
After 25 minutes, and without washing the plate, ATP/MnCl2 solution was added in each well. The final concentration was 3 μM ATP/5 mM MnCl2. In this step the temperature was kept at 26° C. and the plate was under constant shaking. The incubation with ATP/MnCl2 was for 5 minutes.
Then, to stop the phosphorylation reaction, EDTA was added (pH 8, final concentration in each well 20 mM) and after 1 minute all the plate was washed.
Afterward, polyclonal anti-phosphotyrosine serum (Sugen, Inc.) was added (dilution of antibody in TBST containing 5% milk). The incubation was for 45 minutes.

[2] = target: EGFR autophosphorylation in intact A431 cells (Homo sapiens, UniProt P00533); experiment: EGFR autophosphorylation inhibition rate measurements in intact A431 cells; type: cell-based; settings: 30 nM inhibitor
Experimental: A431 cells (10^6) were seeded in 6-well plates and grown to 60–80% confluence in DMEM (high glucose) containing 10% fetal calf serum (FCS) and antibiotics at 37° C.
After the incubation, the medium was replaced with an inhibitor/FCS-free medium, the cells were kept at 37° C. for either 1 or 8 hours, stimulated thereafter with EGF and lysated as described hereinabove. The protein determination assay was then performed once with n=1 for each time point of the 1 hour post-incubation set of cells left, and with n=2 (for each time point) for the 8 hours post-incubation set of cells.
The strips were then washed (3×15 minutes) with fading solution (20% MeOH, 7% acetic acid) and dried.
For visualization of molecular weight bands, the membrane was immersed in Ponceau reagent (0.05% Ponceau, 5% acetic acid) for a few minutes, and then washed twice with TTN (10 mM Tris pH 7.4, 0.2% TWEEN 20, 170 mM NaCl) and once with water. The membrane was blocked overnight in TTN containing 5% milk (1% fat) (blocking TTN) and incubated for 90 minutes with PY20 antiphosphotyrosine antibody (Santa Cruz Biotechnology Inc., Santa Cruz, USA) diluted 1:2,000 in blocking TTN.

[3] = target: EGFR-TK autophosphorylation in intact A431 cells (Homo sapiens, UniProt P00533); experiment: cell-based
Experimental: Autophosphorylation Inhibition Experiments in Intact A431 Cells:
A431 cells (10^6) were seeded in 6-well plates and grown to 60–80% confluence in DMEM (high glucose) containing 10% fetal calf serum (FCS) and antibiotics at 37° C. The cells were then exposed to serum-free medium, at 37° C., for 18 hours.
Irreversibility assay: Variable concentrations of the inhibitor, ranging from 0.05 nM to 50 nM, were added to A431 cells for 2 hours incubation. The inhibitor was diluted in vehicle/DMSO and the final concentration of DMSO was 0.05% in each well). The medium was replaced thereafter with an inhibitor/FCS-free medium and the cells were left for either 2 or 8 hours, at 37° C. During the 8 hours period, the medium was changed three more times. After the post-incubation period, the cells were stimulated with EGF (20 ng/ml) for 5 minutes and then washed with PBS. Whole-cell lysates were obtained by scraping the cells into the well with 0.4 ml of Leammli buffer (10% glycerol, 3% sodium dodecyl sulfate, 5% b-mercaptoethanol, 50 mM Tris pH 6.8) that contained 0.001% bromophenol blue, and boiling for 5 minutes.
Western blots: Identical protein amounts from each lysate sample were loaded onto polyacrylamide gel (6% or 10%), separated by electrophoresis (Hoefer Pharmacia Diotech Inc., San Francisco, USA) and transferred to nitrocellulose membrane (power supply: EPS 500/400, Amersham Pharmacia Biotech; nitrocellulose extra blotting membranes: Sartorius A G, Goettingen, Germany). A standard high molecular weight solution was loaded as a reference. For visualization of molecular weight bands, the membrane was immersed in Ponceau reagent (0.05% Ponceau, 5% acetic acid) for a few minutes, and then washed twice with TTN (10 mM Tris pH 7.4, 0.2% TWEEN 20, 170 mM NaCl) and once with water. The membrane was blocked overnight in TTN containing 5% milk (1% fat) (blocking TTN) and incubated for 90 minutes with PY20 antiphosphotyrosine antibody (Santa Cruz Biotechnology Inc., Santa Cruz, USA) diluted 1:2,000 in blocking TTN. The membrane was then washed with TTN (3×5 minutes), incubated for 90 minutes with a horseradish peroxidase-conjugated secondary antibody (Goat anti-mouse IgG H+L, Jackson ImResearch Laboratories, Inc, diluted 1:10,000 in blocking TTN), and finally washed again with TTN (3×5 minutes). The membrane was incubated in a luminol-based solution (1 minute, 0.1 M Tris pH 8.5, 250 μM luminol, 400 μM p-cumaric acid, 0.033% H2O2) and visualized using chemiluminescent detection.
Quantification of the EGFR-P (protein) bands density obtained was performed using Adobe Photoshop 5.0ME and NIH image 1.16/ppc programs.

[4] = system: A431 tumor; experiment: Positron Emission Tomography studies in tumor bearing nude rats; type: in vivo, rat; settings: for bladder excretion (PET coronal views): FIG. 12
Experimental: (§1) WAG rnu/rnu male rats (300–400 grams) were injected s.c. in the left or right hind limb, or in the neck, with A431 cells (1×10^7 in 200 μl sterile PBS). Tumor growth was monitored every 2–3 days by calipers. One to two weeks after inoculation, the rats were ready to be used in the following in-vivo biodistribution, metabolic and PET studies. Tumor mass ranging between 2 and 3 grams were used in these experiments.
Positron Emission Tomography studies: Preliminary dynamic PET scans were performed on a Positron Corporation HZL/R scanner (intrinsic spatial resolution: in-plane 5.8 mm, axial 6.3 mm). Rats were anaesthetized with pentothal (85 mg/Kg) and placed supine on a flat polystyrene foam support with feet taped to the support, so as to minimize movements. […] The PET data were normalized for variations in detector sensitivity, and corrected for wobble, randoms, scatter and deadtime. Attenuation correction was applied using the measured transmission scan data. PET images of the Posicam system (Positron Corporation) were reconstructed by filtered back-projection using a Butterworth filter (cut-off 0.2 cycles/mm, order 10). […] These experiments were conducted with the same rats, two days after the first set of experiments.

[5] = system: A431 tumor; experiment: Biodistribution in tumor (A431) bearing rats; type: in vivo, rat; settings: for tumor/blood ratios: data not shown; for course of tumor uptake with time / tumor uptake: tumor (A431) bearing rats
Experimental: as §1, with “experiments. Biodistribution: […] Animals were sacrificed at specific time points (between 0 and 1 hour) by means of CO2 asphyxiation. Blood and certain organs and tissues including tumors were collected or excised, counted in a gamma-counter and weighed. % ID/organ, % ID/gram of tissue and tissue/blood uptake ratios were calculated.” for “experiments.”

[6] = Biological stability (metabolism) in blood, liver and tumor of rats; type: in vivo, rat
Experimental: as §1, with “experiments. Biological Stability: […] In general, control rats were injected with the radiolabeled compounds and sacrificed at several time points. […] Ether was then added and the samples were counted in a gamma-counter. Blood, homogenized liver and tumor samples were extracted and the extracted fractions were measured for activity in a gamma-counter, spotted onto TLC, and the radioactivity was detected with phosphor imaging plates.” for “experiments.”

[7] = system: A431 cells; experiment: Specific binding measurements in intact A431 cells; set-up: species or system human
Experimental: Specific Binding Measurements in Intact A431 Cells: […] After incubation, cells were harvested with a cell harvester (Brandel […], model […], Brandel, Gaithersburg, Md., USA) and were counted in a gamma-counter (1480 WizardTM 3''). The specific binding of the radiolabeled inhibitor was calculated by subtracting the radioactivity level of cells pre-incubated with the non-labeled inhibitor from the radioactivity level of cells pre-incubated with the vehicle only.

Sequence of EGFR-TK autophosphorylation in intact A431 cells (P00533 25-1210): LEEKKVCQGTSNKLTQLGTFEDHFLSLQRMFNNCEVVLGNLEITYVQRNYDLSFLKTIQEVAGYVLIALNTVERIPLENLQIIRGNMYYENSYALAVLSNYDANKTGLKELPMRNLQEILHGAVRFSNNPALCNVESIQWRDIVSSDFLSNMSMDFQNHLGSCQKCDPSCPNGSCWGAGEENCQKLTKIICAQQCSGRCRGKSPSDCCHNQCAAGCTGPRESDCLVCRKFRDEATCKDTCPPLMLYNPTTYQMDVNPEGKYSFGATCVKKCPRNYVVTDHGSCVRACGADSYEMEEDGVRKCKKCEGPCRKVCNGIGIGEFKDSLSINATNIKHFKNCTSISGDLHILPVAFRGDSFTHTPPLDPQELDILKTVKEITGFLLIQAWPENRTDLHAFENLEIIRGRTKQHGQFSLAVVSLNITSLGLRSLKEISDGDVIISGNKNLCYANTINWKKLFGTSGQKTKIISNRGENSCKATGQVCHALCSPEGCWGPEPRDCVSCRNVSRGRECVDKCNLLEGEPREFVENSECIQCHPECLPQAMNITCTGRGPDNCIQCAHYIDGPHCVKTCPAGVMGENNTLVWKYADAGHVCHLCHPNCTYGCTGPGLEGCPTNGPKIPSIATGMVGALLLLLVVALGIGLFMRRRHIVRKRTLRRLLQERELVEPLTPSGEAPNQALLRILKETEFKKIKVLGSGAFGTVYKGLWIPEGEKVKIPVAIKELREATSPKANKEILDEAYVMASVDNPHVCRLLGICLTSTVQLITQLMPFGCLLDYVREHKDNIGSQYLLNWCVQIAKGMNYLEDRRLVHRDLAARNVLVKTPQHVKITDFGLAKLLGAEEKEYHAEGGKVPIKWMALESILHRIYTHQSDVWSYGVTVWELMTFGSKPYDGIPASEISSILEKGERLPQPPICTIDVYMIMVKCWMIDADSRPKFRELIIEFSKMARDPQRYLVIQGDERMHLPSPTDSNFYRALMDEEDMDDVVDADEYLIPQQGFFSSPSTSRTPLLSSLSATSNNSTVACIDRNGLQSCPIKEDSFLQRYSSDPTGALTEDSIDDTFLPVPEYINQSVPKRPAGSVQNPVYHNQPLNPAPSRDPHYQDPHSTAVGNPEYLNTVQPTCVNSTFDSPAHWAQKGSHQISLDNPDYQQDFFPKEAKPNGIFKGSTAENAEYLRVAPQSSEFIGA
Sequence of EGFR-TK (P00533 25-1210): as above
Sequence of EGFR autophosphorylation in intact A431 cells (P00533 25-1210): as above

C=CC(=O)Nc1ccc2ncnc(Nc3cc(Cl)c(Cl)cc3F)c2c1 [Compound 3, N-{4-[(3,4-dichloro-6-fluorophenyl)amino]quinazoline-6-yl}acrylamide]
IC50 ([1]; IC50app of an exemplary dose-response autophosphorylation inhibition curve, single exemplary curve (FIG. 1 / FIG. 5), r2 0.995): 51 pM
IC50 ([1]; apparent IC50 average (IC50app), EGFR-TK autophosphorylation, average of 4 independent dose-response curves (n=4), spread ±0.016): 42 pM
inhibition of EGFR autophosphorylation ([2]; 9 minutes incubation time, 1 hour post-incubation (FIG. 4), compared with the 80% inhibition of FIG. 3): same effect
inhibition at 0.03 µM ([2]; A-431, 10 minutes incubation time, 8 hours post-incubation (FIG. 3)): 80%
inhibition at 0.0005 µM ([3]; A-431, read-out: inhibition of EGFR autophosphorylation, 0.5 nM inhibitor, 2 h incubation, 2 hours in inhibitor/FCS-free media): ~35%
inhibition at 0.005 µM ([3]; A-431, read-out: inhibition of EGFR autophosphorylation, 5 nM inhibitor, 2 h incubation, 2 hours in inhibitor/FCS-free media): 40%
inhibition at 0.05 µM ([3]; A-431, read-out: inhibition of EGFR autophosphorylation, 50 nM inhibitor, 2 h incubation, 2 hours in inhibitor/FCS-free media): ~100%
inhibition at 0.05 µM ([3]; A-431, read-out: inhibition of EGFR autophosphorylation, 50 nM inhibitor, 2 h incubation, 8 hours post-incubation): ~97%

OC[C@H]1O[C@@H](O)[C@H]([18F])[C@@H](O)[C@@H]1O [FDG, reference compound]
bladder excretion (PET coronal views) [4]: excreted in the bladder in great quantities

C=CC(=O)Nc1ccc2ncnc(Nc3cc(Cl)c(Cl)cc3F)c2c1 [carbon-11 labeled Compound 3, carbon-11 labeled N-{4-[(3,4-dichloro-6-fluorophenyl)amino]quinazoline-6-yl}acrylamide]
tumor/blood ratios ([5]; 15 minutes post administration): 0.09 % ID/gram
tumor/blood ratios ([5]; 30 minutes post administration): 0.05 % ID/gram
course of tumor uptake with time [5]: decreased with time
tracer remaining intact in blood ([6]; 15 minutes post injection): 20%
metabolites in liver and blood (TLC) ([6]; 30 minutes post injection, tumor bearing rats): detected
tracer remaining intact in blood ([6]; 45 minutes post injection): no tracer was remained

CN(C)CC=CC(=O)Nc1ccc2ncnc(Nc3cc(Cl)c(Cl)cc3F)c2c1 [carbon-11 labeled Compound 4, carbon-11 labeled N-{4-[(3,4-dichloro-6-fluorophenyl)amino]quinazoline-6-yl}-4-(dimethylamino)-2-butenamide]
increase of specific binding as compared to carbon-11 labeled Compound 3 ([7]; A431 cells): 10%
specific binding to A431 cells ([7]; carbon-11 labeled tracer, non-specific binding from cells pre-incubated with non-labeled inhibitor): 78%
tumor uptake ([5]; 15 minutes post-administration): 0.25 % ID/gram
tumor uptake ([5]; 30 minutes post-administration): 0.24 % ID/gram
course of tumor uptake with time [5]: remained constant
course of intact tracer in blood with time ([6]; 15 to 45 minutes post injection): no substantial reduction with time
tracer remaining intact in blood ([6]; 15 minutes post injection): 60%
metabolites (TLC) ([6]; 60 minutes post injection, tumor bearing rats): no metabolites
PET visualization of the tumor ([4]; 250 μCi via jugular vein, dynamic scan): visualized throughout a 1-hour scan
bladder excretion (PET coronal views) [4]: slower and minimal bladder excretion
specific binding of radiolabeled inhibitor in tumor ([4]; PET, alone versus blocked with non-labeled compound): 50%
decrease of liver activity uptake ([4]; during one hour scanning time): 25%
course of activity uptake in the tumor ([4]; during the first one hour scan): remained constant
tumor uptake of tracer after pre-injection of non-labeled Compound 4 ([4]; non-labeled Compound 4 given 10 minutes before tracer, same rats 2 days later): blocked
total activity uptake in tumor when administered alone as compared with uptake after pre-injecting non-labeled compound ([4]; time activity curves of the tumor region (FIG. 10)): doubled
